The results in this text go back to patent publication US7357991B2, “Soluble compound and organic electroluminescent devices” (Idemitsu Kosan Co., Ltd., priority 2001, dated 2008).

This data set is described as follows: Solubility in organic solvents. It is filed as physicochemical. The conditions noted are these: in each of toluene, xylene, N-methylpyrrolidone, γ-butyrolactone, 1,3-dimethyl-2-imidazoline, carbitol acetate, butylcarbitol acetate, dichloromethane, dichloroethane, chlorobenzene and isopropyl alcohol. The procedure:
Examples of the distyrylarylene derivative represented by general formula (1) of the present invention will be shown in the following. However, the distyrylarylene derivative of the present invention is not limited to the compounds shown as the examples. In the following, C5 means n-pentyl group. The compounds shown in the following as the examples are all dissolved into 1,2-dichloroethane at 20° C. in an amount of 0.5% by weight or more.
In the same procedures as those conducted in Example 1, 4,4″-bis(2,2-diphenylethenyl)-9′,10′-diphenylanthracene was used in place of Compound (A1) and attempted to be dissolved in organic solvents, which were toluene, xylene, N-methylpyrrolidone, γ-butyrolactone, 1,3-dimethyl-2-imidazoline, carbitol acetate, butylcarbitol acetate, dichloromethane, dichloroethane, chlorobenzene and isopropyl alcohol. However, this compound was hardly soluble in these solvents since the solubility was smaller than 0.01% by weight in all of these solvents, and no device could be prepared.

For `C(=C(c1ccccc1)c1ccccc1)c1ccc(-c2c3ccccc3c(-c3ccc(C=C(c4ccccc4)c4ccccc4)cc3)c3ccccc23)cc1` [4,4″-bis(2,2-diphenylethenyl)-9′,10′-diphenylanthracene], the solubility result is reported as “smaller than 0.01 % by weight”.
